{"source": "ChEMBL document CHEMBL3632568", "about": "“Synthesis and biological evaluation of polyalthic acid derivatives for the treatment of neglected diseases” (Bioorg Med Chem Lett, 2015)", "format_in_all_cases": "functional, organism-based", "key": {"Leishmania donovani [1]": {"system": "Leishmania donovani", "assay": "Antileishmanial activity against axenic amastigote stage of Leishmania donovani assessed as growth inhibition after 72 hrs by Alamar Blue assay"}, "Trypanosoma brucei": {"system": "Trypanosoma brucei", "assay": "Antitrypanosomal activity against trypamastigote stage of Trypanosoma brucei assessed as growth inhibition after 72 hrs by Alamar Blue assay"}, "Leishmania donovani [2]": {"system": "Leishmania donovani", "assay": "Antileishmanial activity against promastigote stage of Leishmania donovani assessed as growth inhibition at 0.0128 to 40 ug/ml after 72 hrs by Alamar Blue assay"}}, "note": "Activity calls are given as the source filed them. The calls are words filed in the database; no cut-off is given here."}
{"smiles": "C=C1CC[C@H]2[C@@](C)(CCC[C@]2(C)C(=O)NCCOCCO)[C@@H]1CCc1ccoc1", "values": [{"measurement": "IC50", "setting": "Leishmania donovani [1]", "result": "> 10", "unit": "mg/L"}, {"measurement": "IC90", "setting": "Leishmania donovani [1]", "result": "> 10", "unit": "mg/L"}, {"measurement": "IC50", "setting": "Trypanosoma brucei", "result": "> 10", "unit": "mg/L"}, {"measurement": "IC90", "setting": "Trypanosoma brucei", "result": "> 10", "unit": "mg/L"}, {"measurement": "inhibition", "setting": "Leishmania donovani [2]", "result": "inactive"}]}
{"smiles": "C=C1CC[C@H]2[C@@](C)(CCC[C@]2(C)C(=O)NC2CCOCC2)[C@@H]1CCc1ccoc1", "values": [{"measurement": "IC50", "setting": "Leishmania donovani [1]", "result": "> 10", "unit": "mg/L"}, {"measurement": "IC90", "setting": "Leishmania donovani [1]", "result": "> 10", "unit": "mg/L"}, {"measurement": "IC50", "setting": "Trypanosoma brucei", "result": 9.88, "unit": "mg/L"}, {"measurement": "IC90", "setting": "Trypanosoma brucei", "result": "> 10", "unit": "mg/L"}, {"measurement": "inhibition", "setting": "Leishmania donovani [2]", "result": "inactive"}]}
{"smiles": "COCCNC(=O)[C@@]1(C)CCC[C@@]2(C)[C@H](CCc3ccoc3)C(O)(CO)CC[C@@H]21", "note": "(some centres not stated)", "values": [{"measurement": "IC50", "setting": "Leishmania donovani [1]", "result": "> 10", "unit": "mg/L"}, {"measurement": "IC90", "setting": "Leishmania donovani [1]", "result": "> 10", "unit": "mg/L"}, {"measurement": "IC50", "setting": "Trypanosoma brucei", "result": 7.68, "unit": "mg/L"}, {"measurement": "IC90", "setting": "Trypanosoma brucei", "result": "> 10", "unit": "mg/L"}, {"measurement": "inhibition", "setting": "Leishmania donovani [2]", "result": "inactive"}]}
{"smiles": "C=C1CC[C@H]2[C@@](C)(CCC[C@]2(C)C(=O)NCC2CCCCC2)[C@@H]1CCc1ccoc1", "values": [{"measurement": "IC50", "setting": "Leishmania donovani [1]", "result": 3.84, "unit": "mg/L"}, {"measurement": "IC90", "setting": "Leishmania donovani [1]", "result": 7.75, "unit": "mg/L"}, {"measurement": "IC50", "setting": "Trypanosoma brucei", "result": 5.75, "unit": "mg/L"}, {"measurement": "IC90", "setting": "Trypanosoma brucei", "result": 8.52, "unit": "mg/L"}, {"measurement": "inhibition", "setting": "Leishmania donovani [2]", "result": "inactive"}]}
{"smiles": "C=C1CC[C@H]2[C@@](C)(CCC[C@]2(C)C(=O)NC2CCCCC2)[C@@H]1CCc1ccoc1", "values": [{"measurement": "IC50", "setting": "Leishmania donovani [1]", "result": 4.23, "unit": "mg/L"}, {"measurement": "IC90", "setting": "Leishmania donovani [1]", "result": 8.19, "unit": "mg/L"}, {"measurement": "IC50", "setting": "Trypanosoma brucei", "result": 3.58, "unit": "mg/L"}, {"measurement": "IC90", "setting": "Trypanosoma brucei", "result": 8.1, "unit": "mg/L"}, {"measurement": "inhibition", "setting": "Leishmania donovani [2]", "result": "inactive"}]}
{"smiles": "C=C1CC[C@H]2[C@@](C)(CCC[C@]2(C)C(=O)NC2CC2)[C@@H]1CCc1ccoc1", "values": [{"measurement": "IC50", "setting": "Leishmania donovani [1]", "result": 8.21, "unit": "mg/L"}, {"measurement": "IC90", "setting": "Leishmania donovani [1]", "result": "> 10", "unit": "mg/L"}, {"measurement": "IC50", "setting": "Trypanosoma brucei", "result": 5.62, "unit": "mg/L"}, {"measurement": "IC90", "setting": "Trypanosoma brucei", "result": 8.96, "unit": "mg/L"}, {"measurement": "inhibition", "setting": "Leishmania donovani [2]", "result": "inactive"}]}
{"smiles": "C[C@@]12CCC[C@](C)(C(=O)NCC3CCCCC3)[C@H]1CCC(O)(CO)[C@H]2CCc1ccoc1", "note": "(some centres not stated)", "values": [{"measurement": "IC50", "setting": "Leishmania donovani [1]", "result": "> 10", "unit": "mg/L"}, {"measurement": "IC90", "setting": "Leishmania donovani [1]", "result": "> 10", "unit": "mg/L"}, {"measurement": "IC50", "setting": "Trypanosoma brucei", "result": 6.51, "unit": "mg/L"}, {"measurement": "IC90", "setting": "Trypanosoma brucei", "result": 9.15, "unit": "mg/L"}, {"measurement": "inhibition", "setting": "Leishmania donovani [2]", "result": "inactive"}]}
{"smiles": "C[C@@]12CCC[C@](C)(C(=O)N3CCOCC3)[C@H]1CCC(O)(CO)[C@H]2CCc1ccoc1", "note": "(some centres not stated)", "values": [{"measurement": "IC50", "setting": "Leishmania donovani [1]", "result": "> 10", "unit": "mg/L"}, {"measurement": "IC90", "setting": "Leishmania donovani [1]", "result": "> 10", "unit": "mg/L"}, {"measurement": "IC50", "setting": "Trypanosoma brucei", "result": 6.25, "unit": "mg/L"}, {"measurement": "IC90", "setting": "Trypanosoma brucei", "result": "> 10", "unit": "mg/L"}, {"measurement": "inhibition", "setting": "Leishmania donovani [2]", "result": "inactive"}]}
{"smiles": "C=C1CC[C@H]2[C@@](C)(CCC[C@]2(C)C(=O)N2CCOCC2)[C@@H]1CCc1ccoc1", "values": [{"measurement": "IC50", "setting": "Leishmania donovani [1]", "result": 9.9, "unit": "mg/L"}, {"measurement": "IC90", "setting": "Leishmania donovani [1]", "result": "> 10", "unit": "mg/L"}, {"measurement": "IC50", "setting": "Trypanosoma brucei", "result": 4.62, "unit": "mg/L"}, {"measurement": "IC90", "setting": "Trypanosoma brucei", "result": 8.3, "unit": "mg/L"}, {"measurement": "inhibition", "setting": "Leishmania donovani [2]", "result": "inactive"}]}
{"smiles": "C=C1CC[C@H]2[C@@](C)(CCC[C@]2(C)C(=O)N2CCN(C)CC2)[C@@H]1CCc1ccoc1", "values": [{"measurement": "IC50", "setting": "Leishmania donovani [1]", "result": "> 10", "unit": "mg/L"}, {"measurement": "IC90", "setting": "Leishmania donovani [1]", "result": "> 10", "unit": "mg/L"}, {"measurement": "IC50", "setting": "Trypanosoma brucei", "result": 6.85, "unit": "mg/L"}, {"measurement": "IC90", "setting": "Trypanosoma brucei", "result": "> 10", "unit": "mg/L"}, {"measurement": "inhibition", "setting": "Leishmania donovani [2]", "result": "inactive"}]}
{"smiles": "C=C1CC[C@H]2[C@@](C)(CCC[C@]2(C)C(=O)O)[C@@H]1CCc1ccoc1", "values": [{"measurement": "IC50", "setting": "Leishmania donovani [1]", "result": 8.68, "unit": "mg/L"}, {"measurement": "IC90", "setting": "Leishmania donovani [1]", "result": "> 10", "unit": "mg/L"}, {"measurement": "IC50", "setting": "Trypanosoma brucei", "result": 3.87, "unit": "mg/L"}, {"measurement": "IC90", "setting": "Trypanosoma brucei", "result": 8.12, "unit": "mg/L"}]}
{"smiles": "C=C1CC[C@H]2[C@@](C)(CCC[C@]2(C)C(=O)NCCOC)[C@@H]1CCc1ccoc1", "values": [{"measurement": "IC50", "setting": "Leishmania donovani [1]", "result": 6.73, "unit": "mg/L"}, {"measurement": "IC90", "setting": "Leishmania donovani [1]", "result": "> 10", "unit": "mg/L"}, {"measurement": "IC50", "setting": "Trypanosoma brucei", "result": 2.58, "unit": "mg/L"}, {"measurement": "IC90", "setting": "Trypanosoma brucei", "result": 4.71, "unit": "mg/L"}, {"measurement": "inhibition", "setting": "Leishmania donovani [2]", "result": "inactive"}]}
{"smiles": "C=C1CC[C@H]2[C@@](C)(CCC[C@]2(C)C(=O)N(CC)CC)[C@@H]1CCc1ccoc1", "values": [{"measurement": "IC50", "setting": "Leishmania donovani [1]", "result": 5.12, "unit": "mg/L"}, {"measurement": "IC90", "setting": "Leishmania donovani [1]", "result": 8.75, "unit": "mg/L"}, {"measurement": "IC50", "setting": "Trypanosoma brucei", "result": 5, "unit": "mg/L"}, {"measurement": "IC90", "setting": "Trypanosoma brucei", "result": 8.82, "unit": "mg/L"}, {"measurement": "inhibition", "setting": "Leishmania donovani [2]", "result": "inactive"}]}
{"smiles": "C=C1CC[C@H]2[C@@](C)(CCC[C@]2(C)C(=O)NC(C)C)[C@@H]1CCc1ccoc1", "values": [{"measurement": "IC50", "setting": "Leishmania donovani [1]", "result": 7.04, "unit": "mg/L"}, {"measurement": "IC90", "setting": "Leishmania donovani [1]", "result": "> 10", "unit": "mg/L"}, {"measurement": "IC50", "setting": "Trypanosoma brucei", "result": 2.74, "unit": "mg/L"}, {"measurement": "IC90", "setting": "Trypanosoma brucei", "result": 4.9, "unit": "mg/L"}, {"measurement": "inhibition", "setting": "Leishmania donovani [2]", "result": "inactive"}]}
{"smiles": "C[C@@H]1[C@H](O)[C@@H](C)/C=C/C=C/C=C/C=C/C=C/C=C/C=C/[C@H](O[C@@H]2O[C@H](C)[C@@H](O)[C@H](N)[C@@H]2O)C[C@@H]2O[C@](O)(C[C@@H](O)C[C@@H](O)[C@H](O)CC[C@@H](O)C[C@@H](O)CC(=O)O[C@H]1C)C[C@H](O)[C@H]2C(=O)O", "note": "[AMPHOTERICIN B]", "values": [{"measurement": "IC50", "setting": "Leishmania donovani [1]", "result": 0.195, "unit": "mg/L"}, {"measurement": "IC90", "setting": "Leishmania donovani [1]", "result": 0.301, "unit": "mg/L"}, {"measurement": "IC50", "setting": "Trypanosoma brucei", "result": 4.52, "unit": "mg/L"}, {"measurement": "IC90", "setting": "Trypanosoma brucei", "result": 10.1, "unit": "mg/L"}]}
{"smiles": "C=C1CC[C@H]2[C@@](C)(CCC[C@]2(C)C(=O)NCCCC)[C@@H]1CCc1ccoc1", "values": [{"measurement": "IC50", "setting": "Leishmania donovani [1]", "result": 5.93, "unit": "mg/L"}, {"measurement": "IC90", "setting": "Leishmania donovani [1]", "result": 9.02, "unit": "mg/L"}, {"measurement": "IC50", "setting": "Trypanosoma brucei", "result": 6.14, "unit": "mg/L"}, {"measurement": "IC90", "setting": "Trypanosoma brucei", "result": 9.13, "unit": "mg/L"}, {"measurement": "inhibition", "setting": "Leishmania donovani [2]", "result": "inactive"}]}
{"smiles": "N=C(N)c1ccc(OCCCCCOc2ccc(C(=N)N)cc2)cc1", "note": "[PENTAMIDINE]", "values": [{"measurement": "IC50", "setting": "Leishmania donovani [1]", "result": 1.89, "unit": "mg/L"}, {"measurement": "IC90", "setting": "Leishmania donovani [1]", "result": 5.81, "unit": "mg/L"}, {"measurement": "IC50", "setting": "Trypanosoma brucei", "result": 0.002, "unit": "mg/L"}, {"measurement": "IC90", "setting": "Trypanosoma brucei", "result": 0.003, "unit": "mg/L"}]}
{"smiles": "C=C1CC[C@H]2[C@@](C)(CCC[C@]2(C)C(=O)NCCN(C)C)[C@@H]1CCc1ccoc1", "values": [{"measurement": "IC50", "setting": "Leishmania donovani [1]", "result": "> 10", "unit": "mg/L"}, {"measurement": "IC90", "setting": "Leishmania donovani [1]", "result": "> 10", "unit": "mg/L"}, {"measurement": "IC50", "setting": "Trypanosoma brucei", "result": "> 10", "unit": "mg/L"}, {"measurement": "IC90", "setting": "Trypanosoma brucei", "result": "> 10", "unit": "mg/L"}, {"measurement": "inhibition", "setting": "Leishmania donovani [2]", "result": "inactive"}]}
